Measured values as given in US10092551B2, “Spiro-thiazolones” (Hoffmann-La Roche Inc., priority 2014, dated 2018).

Target: human V1a receptor (Homo sapiens (Human), UniProt P37288)
Assay: human V1a receptor binding studies (3H-Vasopressin, SPA beads)
Conditions: membranes of HEK293 cells transiently transfected with human V1a receptor, Ki by Cheng-Prussoff
Description: The human V1a receptor was cloned by RT-PCR from total human liver RNA. The coding sequence was subcloned in an expression vector after sequencing to confirm the identity of the amplified sequence. […] Cell membranes were prepared from HEK293 cells transiently transfected with the expression vector and grown in 20 liter fermenters with the following protocol.
50 g of cells are re-suspended in 30 ml freshly prepared ice cold Lysis buffer (50 mM HEPES, 1 mM EDTA, 10 mM MgCl2 adjusted to pH=7.4+complete cocktail of protease inhibitor (Roche Diagnostics)). Homogenized with Polytron for 1 min and sonicated on ice for 2×2 minutes at 80% intensity (Vibracell sonicator). The preparation is centrifuged 20 min at 500 g at 4° C., the pellet is discarded and the supernatant centrifuged 1 hour at 43,000 g at 4° C. (19,000 rpm). The pellet is re-suspended in 12.5 ml Lysis buffer+12.5 ml Sucrose 20% and homogenized using a Polytron for 1-2 min. The protein concentration is determined by the Bradford method and aliquots are stored at −80° C. until use. For binding studies 60 mg Yttrium silicate SPA beads (Amersham) are mixed with an aliquot of membrane in binding buffer (50 mM Tris, 120 mM NaCl, 5 mM KCl, 2 mM CaCl2, 10 mM MgCl2) for 15 minutes with mixing. 50 μl of bead/membrane mixture is then added to each well of a 96 well plate, followed by 50 μl of 4 nM 3H-Vasopressin (American Radiolabeled Chemicals). For total binding measurement 100 μl of binding buffer are added to the respective wells, for non-specific binding 100 μl of 8.4 mM cold vasopressin and for compound testing 100 μl of a serial dilution of each compound in 2% DMSO. The plate is incubated 1 h at room temperature, centrifuged 1 min at 1000 g and counted on a Packard Top-Count. Non-specific binding counts are subtracted from each well and data is normalized to the maximum specific binding set at 100%. To calculate an IC 50 the curve is fitted using a non-linear regression model (XLfit) and the Ki is calculated using the Cheng-Prussoff equation.

Sequence of human V1a receptor (P37288 whole entry): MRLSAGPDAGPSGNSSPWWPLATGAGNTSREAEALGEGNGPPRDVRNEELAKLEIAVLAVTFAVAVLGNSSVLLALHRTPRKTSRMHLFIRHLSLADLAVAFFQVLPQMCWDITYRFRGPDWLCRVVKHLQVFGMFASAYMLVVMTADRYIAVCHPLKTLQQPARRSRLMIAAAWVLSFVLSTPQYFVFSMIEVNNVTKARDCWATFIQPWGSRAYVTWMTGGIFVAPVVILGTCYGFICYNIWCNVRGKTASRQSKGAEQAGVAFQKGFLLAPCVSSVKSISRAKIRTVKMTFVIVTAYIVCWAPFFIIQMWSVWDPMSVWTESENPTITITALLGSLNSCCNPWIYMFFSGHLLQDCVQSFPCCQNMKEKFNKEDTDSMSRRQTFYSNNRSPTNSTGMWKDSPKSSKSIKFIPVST

SMILES | pKi hV1a
C/C(=C1/SC(N2CCC3(CC2)OCc2ccccc23)=NC1=O)C(F)(F)F [Example 71, (5Z)-2-(1′H,3H-spiro[2-benzofuran-1,4′-piperidin]-1′-yl)-5-(1,1,1-trifluoropropan-2-ylidene)-1,3-thiazol-4(5H)-one] | 8.3
CC(C)(C)[Si](C)(C)OC/C(=C1/SC(N2CCC3(CC2)OCc2ccccc23)=NC1=O)c1ccccc1 [Example 123, (5E)-5-(2-{[tert-butyl(dimethyl)silyl]oxy}-1-phenylethylidene)-2-(1′H,3H-spiro[2-benzofuran-1,4′-piperidin]-1′-yl)-1,3-thiazol-4(5H)-one] | 8.5
C/C(=C1/SC(N2CCC3(CC2)OCc2ncccc23)=NC1=O)c1ccc(Cl)cc1 [Example 6, (5E/Z)-5-[1-(4-chlorophenyl)ethylidene]-2-(1′H,7H-spiro[furo[3,4-b]pyridine-5,4′-piperidin]-1′-yl)-1,3-thiazol-4(5H)-one] | 9.3
C/C(=C1/SC(N2CCC3(CC2)OCc2ccccc23)=NC1=O)C1CCCCC1 [Example 29, (5Z)-5-(1-cyclohexylethylidene)-2-(1′H,3H-spiro[2-benzofuran-1,4′-piperidin]-1′-yl)-1,3-thiazol-4(5H)-one] | 8.7
C/C(=C1/SC(N2CCC3(CC2)OCc2ccccc23)=NC1=O)c1ccnc(C)c1 [Example 77, (5E/Z)-5-[1-(2-methylpyridin-4-yl)ethylidene]-2-(1′H,3H-spiro[2-benzofuran-1,4′-piperidin]-1′-yl)-1,3-thiazol-4(5H)-one] | 7.6
CS(=O)(=O)N1CCC(=C2SC(N3CCC4(CC3)OCc3ccccc34)=NC2=O)CC1 [Example 68, 5-[1-(methylsulfonyl)piperidin-4-ylidene]-2-(1′H,3H-spiro[2-benzofuran-1,4′-piperidin]-1′-yl)-1,3-thiazol-4(5H)-one] | 7.7
CCCC(CCC)=C1SC(N2CCC3(CC2)OCc2ccccc23)=NC1=O [Example 114, 5-(heptan-4-ylidene)-2-(1′H,3H-spiro[2-benzofuran-1,4′-piperidin]-1′-yl)-1,3-thiazol-4(5H)-one] | 8.9
O=C1N=C(N2CCC3(CC2)OCc2ccccc23)SC1=C1c2ccccc2-c2ccccc21 [Example 104, 5-(9H-fluoren-9-ylidene)-2-(1′H,3H-spiro[2-benzofuran-1,4′-piperidin]-1′-yl)-1,3-thiazol-4(5H)-one] | 8.2
O=C1N=C(N2CCC3(CC2)OCc2ccccc23)S/C1=C1/CCCc2cc(Cl)ccc21 [Example 11, (5E/Z)-5-(6-chloro-3,4-dihydronaphthalen-1(2H)-ylidene)-2-(1′H,3H-spiro[2-benzofuran-1,4′-piperidin]-1′-yl)-1,3-thiazol-4(5H)-one] | 8.4
C/C(=C1\SC(N2CCC3(CC2)OC(=O)c2ccccc23)=NC1=O)c1ccc(Cl)nc1 [Example 138, 1′-{(5E)-5-[1-(6-chloropyridin-3-yl)ethylidene]-4-oxo-4,5-dihydro-1,3-thiazol-2-yl}-3H-spiro[2-benzofuran-1,4′-piperidin]-3-one] | 8.3
CC/C(=C1/SC(N2CCC3(CC2)OCc2ccccc23)=NC1=O)c1ccncc1 [Example 31, (5Z)-5-[1-(pyridin-4-yl)propylidene]-2-(1′H,3H-spiro[2-benzofuran-1,4′-piperidin]-1′-yl)-1,3-thiazol-4(5H)-one] | 8.4
CC(C)(C)OC(=O)NC/C(=C1/SC(N2CCC3(CC2)OCc2ccccc23)=NC1=O)c1ccccc1 [Example 159, tert-butyl {(2E/Z)-2-[4-oxo-2-(1′H,3H-spiro[2-benzofuran-1,4′-piperidin]-1′-yl)-1,3-thiazol-5(4H)-ylidene]-2-phenylethyl}carbamate] | 9.3
C/C(=C1/SC(N2CCC3(CC2)OCc2ccccc23)=NC1=O)c1cc2ncccc2o1 [Example 108, (5E/Z)-5-[1-(furo[3,2-b]pyridin-2-yl)ethylidene]-2-(1′H,3H-spiro[2-benzofuran-1,4′-piperidin]-1′-yl)-1,3-thiazol-4(5H)-one] | 7.0
C/C(=C1/SC(N2CCC3(CC2)OCc2ccccc23)=NC1=O)c1ccncc1F [Example 158, (5Z)-5-[1-(3-fluoropyridin-4-yl)ethylidene]-2-(1′H,3H-spiro[2-benzofuran-1,4′-piperidin]-1′-yl)-1,3-thiazol-4(5H)-one] | 8.4
O=C1N=C(N2CCC3(CC2)OCc2ccccc23)S/C1=C\c1ccc(Cl)cc1 [Example 8, (5Z)-5-(4-chlorobenzylidene)-2-(1′H,3H-spiro[2-benzofuran-1,4′-piperidin]-1′-yl)-1,3-thiazol-4(5H)-one] | 7.8
O=C1N=C(N2CCC3(CC2)OCc2ccccc23)S/C1=C1/CCNC(=O)c2cc(Cl)ccc21 [Example 67, (5E/Z)-8-chloro-5-[4-oxo-2-(1′H,3H-spiro[2-benzofuran-1,4′-piperidin]-1′-yl)-1,3-thiazol-5(4H)-ylidene]-2,3,4,5-tetrahydro-1H-2-benzazepin-1-one] | 8.7
COc1ccc(/C(C)=C2\SC(N3CCC4(CC3)OCc3ccccc34)=NC2=O)cn1 [Example 85, (5E/Z)-5-[1-(6-methoxypyridin-3-yl)ethylidene]-2-(1′H,3H-spiro[2-benzofuran-1,4′-piperidin]-1′-yl)-1,3-thiazol-4(5H)-one] | 8.4
CC(=C1SC(N2CCC3(CC2)OCc2ccccc23)=NC1=O)c1c(C)noc1C (stereo in doubt) [Example 105, (5E)-5-[1-(3,5-dimethyl-1,2-oxazol-4-yl)ethylidene]-2-(1′H,3H-spiro[2-benzofuran-1,4′-piperidin]-1′-yl)-1,3-thiazol-4(5H)-one] | 8.7
O=C1N=C(N2CCC3(CC2)OCc2ccccc23)S/C1=C(/CF)c1ccc(Cl)cc1 [Example 23, (5E/Z)-5-[1-(4-chlorophenyl)-2-fluoroethylidene]-2-(1′H,3H-spiro[2-benzofuran-1,4′-piperidin]-1′-yl)-1,3-thiazol-4(5H)-one] | 9.4
Cc1cc(/C=C2\SC(N3CCC4(CC3)OCc3ccccc34)=NC2=O)no1 [Example 91, 5-[(5-methyl-1,2-oxazol-3-yl)methylidene]-2-(1′H,3H-spiro[2-benzofuran-1,4′-piperidin]-1′-yl)-1,3-thiazol-4(5H)-one] | 7.5
CC(=O)OCC(COC(C)=O)=C1SC(N2CCC3(CC2)OCc2ccccc23)=NC1=O [Example 72, 2-[4-oxo-2-(1′H,3H-spiro[2-benzofuran-1,4′-piperidin]-1′-yl)-1,3-thiazol-5(4H)-ylidene]propane-1,3-diyl diacetate] | 8.3
C/C(=C1/SC(N2CCC3(CC2)OCc2ccccc23)=NC1=O)c1nc[nH]c1C [Example 109, (5E/Z)-5-[1-(5-methyl-1H-1-imidazol-4-yl)ethylidene]-2-(1′H,3H-spiro[2-benzofuran-1,4′-piperidin]-1′-yl)-1,3-thiazol-4(5H)-one] | 6.6
O=C1N=C(N2CCC3(CC2)OCc2ccccc23)S/C1=C1/CCc2ccccc21 [Example 46, (5Z)-5-(2,3-dihydro-1H-inden-1-ylidene)-2-(1′H,3H-spiro[2-benzofuran-1,4′-piperidin]-1′-yl)-1,3-thiazol-4(5H)-one] | 8.3
C/C(=C1/SC(N2CCC3(CC2)OCc2ccccc23)=NC1=O)c1ncc[nH]1 [Example 107, (5Z)-5-[1-(1H-imidazol-2-yl)ethylidene]-2-(1′H,3H-spiro[2-benzofuran-1,4′-piperidin]-1′-yl)-1,3-thiazol-4(5H)-one] | 6.8
C/C(=C1/SC(N2CCC3(CC2)OC(=O)c2ccccc23)=NC1=O)c1ccc(Cl)nc1 [Example 137, 1′-{(5Z)-5-[1-(6-chloropyridin-3-yl)ethylidene]-4-oxo-4,5-dihydro-1,3-thiazol-2-yl}-3H-spiro[2-benzofuran-1,4′-piperidin]-3-one] | 8.0
C/C(=C1/SC(N2CCC3(CC2)OCc2ccccc23)=NC1=O)c1ccnc(Cl)c1 [Example 48, (5E/Z)-5-[1-(2-chloropyridin-4-yl)ethylidene]-2-(1′H,3H-spiro[2-benzofuran-1,4′-piperidin]-1′-yl)-1,3-thiazol-4(5H)-one] | 8.6
COC/C(C)=C1\SC(N2CCC3(CC2)OCc2ccccc23)=NC1=O [Example 50, (5E/Z)-5-(1-methoxypropan-2-ylidene)-2-(1′H,3H-spiro[2-benzofuran-1,4′-piperidin]-1′-yl)-1,3-thiazol-4(5H)-one] | 8.4
O=C1N=C(N2CCC3(CC2)OCc2ccccc23)SC1=C(c1ccc(F)cc1)c1ccc(F)cc1 [Example 101, 5-[bis(4-fluorophenyl)methylidene]-2-(1′H,3H-spiro[2-benzofuran-1,4′-piperidin]-1′-yl)-1,3-thiazol-4(5H)-one] | 8.0
